Data taken from patent US12295396B2, “Antagonists of T2R54 and compositions and uses thereof” (Firmenich Incorporated, priority 2018, dated 2025).
Like-named read-outs stand apart in the source and are kept apart here.

Biological target: T1, hT2R54 (Homo sapiens, UniProt P59534)
T1 construct: expressed in transfected cells; it overexpresses a promiscuous G protein
T1 sequence (P59534 1-338): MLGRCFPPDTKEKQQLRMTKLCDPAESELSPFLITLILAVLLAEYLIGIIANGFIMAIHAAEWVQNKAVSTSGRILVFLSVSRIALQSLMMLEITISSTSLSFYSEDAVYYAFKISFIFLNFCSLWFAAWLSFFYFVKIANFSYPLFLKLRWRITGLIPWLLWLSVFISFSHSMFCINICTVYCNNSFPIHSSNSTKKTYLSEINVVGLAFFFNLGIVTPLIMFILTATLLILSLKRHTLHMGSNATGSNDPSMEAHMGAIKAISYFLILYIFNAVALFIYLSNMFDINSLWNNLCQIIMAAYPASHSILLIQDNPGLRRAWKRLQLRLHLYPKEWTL
Experiment: Cell-based assay for measuring hT2R54 inhibition (FLIPR calcium, Fluo4AM, acetaminophen as bitter agonist)
Details: read-out: hT2R54 IC50
How it was run: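 The readout was FLIPR calcium (Fluo4AM, 10 s baseline, 3 min post-addition) in cells stably carrying hT2R54 plus a promiscuous G protein, with host cells lacking hT2R54 as counter-control. Acetaminophen concentration series were tested with and without set test-compound levels. Half-maximal block of the agonist response gave the EC50/IC50.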

[1] = Table 2, cells stably expressing hT2R54 and a promiscuous G protein
[2] = Table 4, cells stably expressing hT2R54 and a promiscuous G protein

Compound | IC50 [1] [µM] | also measured
COCc1cccc(C(=O)N2CCC(CC(=O)Nc3cc4c(cc3C(C)=O)OCCO4)CC2)c1 [compound 486] | – | IC50 (Table 8): 0.188 µM
CC(=O)c1cc2c(cc1NC(=O)CN1CCN(C(=O)c3ccc(C)s3)CC1)OCO2 [compound 67] | 0.015 | –
CCCS(=O)(=O)N1CCCC(CC(=O)Nc2cc3c(cc2C(C)=O)OCO3)C1 (stereo not drawn) [compound 224] | – | IC50 (Table 8): 0.04 µM
CC(=O)c1cc2c(cc1NC(=O)Cc1c(C)nn(C)c1C)OCO2 [compound 280] | – | IC50 (Table 9): 1.72 µM
CC(=O)c1cc2c(cc1NC(=O)CC1CCN(C(=O)C3CC3)CC1)OCO2 [compound 238] | – | IC50 (Table 8): 0.47 µM
COc1cc2c(cc1NC(=O)CN1CCSCC1)OCO2 [compound 442] | – | IC50 [2]: 0.2 µM
COc1cc2c(cc1NC(=O)CN1CCN(C(=O)Cc3ccc(O)cc3)CC1)OCO2 [compound 373] | 0.7 | –
CC(=O)c1cc2c(cc1NC(=O)CN1CCN(C(=O)Cc3ccncc3)CC1)OCO2 [compound 60] | 0.08 | –
CC(=O)c1cc2c(cc1NC(=O)CN1CCN(C(=O)c3ccc(CO)o3)CC1)OCO2 [compound 287] | 0.23 | –
COc1ccccc1CC(=O)Nc1cc2c(cc1OC)OCO2 [compound 522] | – | IC50 (Table 9): 0.886 µM
CCOC(=O)C1CCN(CC(=O)Nc2cc3c(cc2C(C)=O)OCO3)CC1 [compound 116, Ethyl 1-(2-((6-acetylbenzo[d][1,3]dioxol-5-yl)amino)-2-oxoethyl)piperidine-4-carboxylate] | – | IC50 [2]: 0.103 µM
CC(=O)c1cc2c(cc1NC(=O)CN1CCN(C(=O)Nc3ccccc3)CC1)OCO2 [compound 33] | 0.05 | –
COC(=O)CN(C)CC(=O)Nc1cc2c(cc1C(C)=O)OCO2 [compound 132] | – | IC50 [2]: 0.659 µM
CCCCC(=O)N1CCC(CC(=O)Nc2cc3c(cc2C(C)=O)OCO3)CC1 [compound 235] | – | IC50 (Table 8): 0.077 µM
COc1cc2c(cc1NC(=O)CN1CCCC(OC)C1)OCO2 (stereo not drawn) [compound 145] | – | IC50 [2]: 0.575 µM
CC(=O)c1cc2c(cc1NC(=O)CN(C)C1CCN(C(=O)OC(C)(C)C)CC1)OCO2 [compound 140] | – | IC50 [2]: 0.433 µM
CC(=O)c1cc2c(cc1NC(=O)CC1CCCN(C(=O)c3nc(C)c[nH]3)C1)OCO2 (stereo not drawn) [compound 504] | – | IC50 (Table 8): 0.159 µM
CCCCC(=O)N1CCN(CC(=O)Nc2cc3c(cc2C(C)=O)OCO3)CC1 [compound 10] | 0.009 | –
CC(=O)c1cc2c(cc1NC(=O)CC1CCCN(C(=O)OC(C)(C)C)C1)OCO2 (stereo not drawn) [compound 519] | – | IC50 (Table 9): 0.9 µM
CC(=O)c1cc2c(cc1NC(=O)CN1CCN(C(=O)c3cnco3)CC1)OCO2 [compound 72] | 0.06 | –
CC(=O)c1cc2c(cc1NC(=O)CC1CN(C(=O)c3ccco3)CCO1)OCO2 (stereo not drawn) [compound 231] | – | IC50 (Table 8): 0.24 µM
COc1cc2c(cc1NC(=O)CN1CCCC(O)C1)OCO2 (stereo not drawn) [compound 144] | – | IC50 [2]: < 2 µM
CC(=O)c1cc2c(cc1NC(=O)CN1CCN(C(=O)c3ccn(C)c3)CC1)OCO2 [compound 77] | 0.03 | –
CC(=O)c1cc2c(cc1NC(=O)CN1CCN(C(=O)c3cc(C)cs3)CC1)OCO2 [compound 73] | 0.08 | –
COC(=O)c1cc2c(cc1NC(=O)CC1CCN(C(=O)OC(C)(C)C)CC1)OCO2 [compound 528] | – | IC50 (Table 9): ~1 µM
CC(=O)c1cc2c(cc1NC(=O)CN1CCN(C(=O)CN3CCOCC3)CC1)OCO2 [compound 28] | 0.107 | –
CC(=O)c1cc2c(cc1NC(=O)CN1CCN(C(=O)c3ccsc3)CC1)OCO2 [compound 37] | 0.023 | –
COC(=O)c1cc2c(cc1NC(=O)CC1CCOCC1)OCCO2 [compound 529] | – | IC50 (Table 9): 12 µM
CC(=O)c1cc2c(cc1NC(=O)CN(C)C1CCCN(C(=O)OC(C)(C)C)C1)OCO2 (stereo not drawn) [compound 138] | – | IC50 [2]: 0.15 µM
CCCOC(=O)N1CCN(CC(=O)Nc2cc3c(cc2C(C)=O)OCO3)CC1 [compound 3, Propyl 4-(2-((6-Acetylbenzo[d][1,3]dioxol-5-yl)amino)-2-oxoethyl)piperazine-1-carboxylate] | 0.015 | –

Second part, led by results:

IC50 [1] [µM] | Compound | also measured
0.091 | CC(=O)c1cc2c(cc1NC(=O)CN1CCN(C(=O)c3conc3C)CC1)OCO2 [compound 298] | –
2.6 | COc1cc2c(cc1NC(=O)CN1CCN(C(=O)c3ncn[nH]3)CC1)OCO2 [compound 388] | –
0.2 | COc1cc2c(cc1NC(=O)CN1CCN(C(=O)c3ncc[nH]3)CC1)OCO2 [compound 393] | –
0.053 | COCc1nc(C(=O)N2CCN(CC(=O)Nc3cc4c(cc3C(C)=O)OCO4)CC2)co1 [compound 296] | –
0.6 | COc1cc2c(cc1NC(=O)CN1CCN(C(=O)c3cccc(CO)c3)CC1)OCO2 [compound 383] | –
0.735 | COc1cc2c(cc1NC(=O)CN1CCN(C(=O)c3cn(C)nn3)CC1)OCO2 [compound 360] | –
